Experimental findings from ChEMBL document CHEMBL1129905, “Benzothiadiazine dioxide acyclonucleosides as lead compounds for the development of new agents against human cytomegalovirus and varicella-zoster virus infections” (Bioorg Med Chem Lett, 1997) are described below.

In brackets after ≈: the same amount, converted by molar mass.

For orientation: CC50 means the concentration at which the toxic effect on the cells reaches its halfway point. A low value points to harm at low concentration. One may read the IC50 as the concentration that gives 50% inhibition. Low values mean inhibition by little substance, high ones a need for much substance.

For assay [1], the system named is HeLa. In words: (§1) Cytotoxic activity was measured in human […] cells (HeLa). It is filed as functional.
Assay [2] concerns HeLa. The assay is described as §1. Format: functional. The source holds these as a separate data set.
Assay [3] concerns HEL. As to the kind of experiment: Antiviral activity was measured against cytomegalovirus (CMV) AD-169 strain in human embryonic lung (HEL) cells. It is filed as functional, cell-based.
Assay [4] has as its system HEL. In words: Antiviral activity was measured against cytomegalovirus (CMV) Davis strain in human embryonic lung (HEL) cells. It is filed as functional, cell-based.
Assay [5] deals with HEL. In words: Antiviral activity was measured against Varicella-Zoster virus (VZV) 07/1 strain in human embryonic lung (HEL) cells. Format: functional, cell-based.
Assay [6] deals with HEL. As to the kind of experiment: Antiviral activity was measured against Varicella-Zoster virus (VZV) YS/R strain in human embryonic lung (HEL) cells. It is filed as functional, cell-based.
Assay [7] has as its system MT4. In words: The potential anti-HIV activity was evaluated against HIV-1 IIIb strain in MT-4 cells. It is filed as functional, cell-based. Conditions: Homo sapiens.
Assay [8] has as its system MT4. In words: The potential anti-HIV activity was evaluated against HIV-2 ROD strain in MT-4 cells. Format: functional, cell-based. To be noted: Homo sapiens.
Assay [9] in a line: Cytotoxic activity was measured in human embryonic lung cells(HeLa). Format: functional.
The test system of assay [10] is Human immunodeficiency virus 1. As to the kind of experiment: Tested for its ability to inhibit replication of HIV-1 in MT-4 cells, activity expressed as IC50. It is filed as functional. To be noted: Human immunodeficiency virus 1, MT4.

With `O=C(OCCOCN1c2ccccc2C(=O)N(Cc2ccccc2)S1(=O)=O)c1ccccc1`, the CC50 in the assay with HeLa [1] is 24 µg/mL (≈ 51.4 µM); in the assay with HeLa [2] it was 24 µg/mL (≈ 51.4 µM); in [9], over 125 µg/mL. Besides, the IC50 with HEL [3] was 12 µg/mL (≈ 25.7 µM); in the assay with HEL [4] it was 12 µg/mL (≈ 25.7 µM); in the assay on HEL [5], over 12 µg/mL; with HEL [6], over 12 µg/mL; in the assay with MT4 [7], 79.3 µg/mL (≈ 170 µM); with MT4 [8], over 86 µg/mL.
On to `C#CCOCN1c2ccccc2C(=O)N(Cc2ccccc2)S1(=O)=O`, for which the CC50 was over 50 µg/mL in the assay with HeLa [1], over 50 µg/mL with HeLa [2] and 23 µg/mL (≈ 64.5 µM) in [9]. The IC50 was 8.4 µg/mL (≈ 23.6 µM) in the assay with HEL [3]; 11 µg/mL (≈ 30.9 µM) with HEL [4]; over 5 µg/mL with HEL [5]; over 5 µg/mL in the assay with HEL [6]; over 8 µg/mL in the assay on MT4 [7]; over 8 µg/mL in the assay on MT4 [8].
For `O=C1c2ccccc2N(Cc2ccccc2)S(=O)(=O)N1COCc1ccccc1`, the results for the CC50 (in the assay with HeLa [1]; with HeLa [2]; in assay [9]) were over 50 µg/mL, over 50 µg/mL and over 125 µg/mL, respectively. Also, the IC50 in the assay on HEL [3] is 3.6 µg/mL (≈ 8.81 µM); with HEL [4], 3.6 µg/mL (≈ 8.81 µM); in the assay with HEL [5], over 5 µg/mL; with HEL [6], 3 µg/mL (≈ 7.34 µM); in assay [10], 3.7 µg/mL (≈ 9.06 µM); in the assay with MT4 [7], 3.7 µg/mL (≈ 9.06 µM). This compound displayed an IC50 in the assay on MT4 [8] of over 99 µg/mL.
On to `O=C1c2ccccc2N(COCc2ccccc2)S(=O)(=O)N1Cc1ccccc1`, for which the CC50 in the assay on HeLa [1] was over 50 µg/mL; in the assay on HeLa [2] it was over 50 µg/mL; in assay [9], 25 µg/mL (≈ 61.2 µM). Also, the IC50 in the assay with HEL [3] is 11 µg/mL (≈ 26.9 µM); with HEL [4], 12 µg/mL (≈ 29.4 µM); with HEL [5] it was 11 µg/mL (≈ 26.9 µM); in the assay with HEL [6], 13 µg/mL (≈ 31.8 µM); with MT4 [7], over 8 µg/mL; in the assay with MT4 [8], over 8 µg/mL.
In the assay on HeLa [1], `Nc1nc2c(ncn2COCCO)c(=O)[nH]1` [ACYCLOVIR] came in with a CC50 of 200 µg/mL (≈ 888 µM).
`Nc1nc2c(ncn2COC(CO)CO)c(=O)[nH]1` [GANCICLOVIR] returned a CC50 in the assay on HeLa [2] of over 50 µg/mL. Further, the IC50 with HEL [3] came out at 1.2 µg/mL (≈ 4.7 µM); with HEL [4], 1.3 µg/mL (≈ 5.09 µM).
